Test results: PubChem BioAssay AID330 (DTP/NCI, 2004)
Where “and” joins values, the source holds several entries; their conditions need not be identical. Equal entries are not always repeated. Toxic doses and inconclusive results are not listed. Rule for the calls: active = survival T/C of 150% or more; inactive = T/C below 125% in these data. Peptide text beside a SMILES is read from it.

Test system: P388 leukemia ip, CD2F1 mice, survival T/C
Assay: NCI In Vivo Anticancer Drug Screen. Data for tumor model P388 Leukemia (intraperitoneal) in CD2F1 (CDF1) mice
Details: endpoint: median survival time, higher = longer survival
Method in brief: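 Mice carrying the transplanted tumor received test compound or vehicle. Survival was recorded in each group, and the value is the treated-group measurement divided by that of the vehicle-treated control group.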

[1] = dose: 15.0 mg/kg/injection, schedule: Q01DX005 (ip), vehicle: Klucel (hydroxypropylcellulose) (HPC)
[2] = dose: 50.0 mg/kg/injection, schedule: Q01DX009 (ip), vehicle: Klucel (hydroxypropylcellulose) (HPC)
[3] = dose: 100.0 mg/kg/injection, schedule: Q01DX009 (ip), vehicle: Klucel (hydroxypropylcellulose) (HPC)
[4] = dose: 200.0 mg/kg/injection, schedule: Q01DX009 (ip), vehicle: Klucel (hydroxypropylcellulose) (HPC)
[5] = dose: 50.0 mg/kg/injection, schedule: Q01DX005 (ip), vehicle: saline with Tween-80
[6] = dose: 100.0 mg/kg/injection, schedule: Q01DX005 (ip), vehicle: saline with Tween-80
[7] = dose: 200.0 mg/kg/injection, schedule: Q01DX005 (ip), vehicle: saline with Tween-80
[8] = dose: 50.0 mg/kg/injection, schedule: Q01DX005 (ip), vehicle: Klucel (hydroxypropylcellulose) (HPC)
[9] = dose: 100.0 mg/kg/injection, schedule: Q01DX005 (ip), vehicle: Klucel (hydroxypropylcellulose) (HPC)
[10] = dose: 100.0 mg/kg/injection, schedule: Q01DX009 (ip), vehicle: saline with Tween-80
[11] = dose: 200.0 mg/kg/injection, schedule: Q01DX009 (ip), vehicle: saline with Tween-80
[12] = dose: 50.0 mg/kg/injection, schedule: Q01DX009 (ip), vehicle: saline
[13] = dose: 100.0 mg/kg/injection, schedule: Q01DX009 (ip), vehicle: saline

Measured: T/C

Cc1cc(=O)c2c(C)nn(-c3ccccc3)c2[nH]1
inactive: [1] 98 % of control | dose: 30.0 mg/kg/injection, schedule: Q01DX005 (ip), vehicle: Klucel (hydroxypropylcellulose) (HPC) 100 % of control | dose: 60.0 mg/kg/injection, schedule: Q01DX005 (ip), vehicle: Klucel (hydroxypropylcellulose) (HPC) 94 % of control | dose: 240.0 mg/kg/injection, schedule: Q01DX005 (ip), vehicle: Klucel (hydroxypropylcellulose) (HPC) 93 % of control

COC(=O)C1=C/C=C\CN(CCC2OCCO2)/C=C\1C(=O)OC
inactive: dose: 100.0 mg/kg/injection, schedule: Q01DX001 (ip), vehicle: alcohol 99 % of control | dose: 200.0 mg/kg/injection, schedule: Q01DX001 (ip), vehicle: alcohol 100 % of control | dose: 400.0 mg/kg/injection, schedule: Q01DX001 (ip), vehicle: alcohol 100 % of control

O=C(NCCCl)NCCCl
inactive: dose: 10.0 mg/kg/injection, schedule: Q01DX009 (ip), vehicle: saline 105 % of control and 108 % of control | dose: 20.0 mg/kg/injection, schedule: Q01DX009 (ip), vehicle: saline 101 % of control and 102 % of control | dose: 40.0 mg/kg/injection, schedule: Q01DX009 (ip), vehicle: saline 104 % of control and 108 % of control | dose: 80.0 mg/kg/injection, schedule: Q01DX009 (ip), vehicle: saline 102 % of control and 109 % of control | dose: 160.0 mg/kg/injection, schedule: Q01DX009 (ip), vehicle: saline 101 % of control and 104 % of control | dose: 320.0 mg/kg/injection, schedule: Q01DX009 (ip), vehicle: saline 102 % of control and 106 % of control

CC(=O)N1CCc2cc([N+](=O)[O-])ccc21
inactive: [2] 99 % of control | [3] 113 % of control | [4] 100 % of control | dose: 400.0 mg/kg/injection, schedule: Q01DX009 (ip), vehicle: Klucel (hydroxypropylcellulose) (HPC) 110 % of control

COc1ccc2c(c1OC)CC(C(=O)O)=C2C
inactive: [5] 99 % of control | [6] 94 % of control | [7] 99 % of control

CC[C@@H]1CN2CCc3c([nH]c4ccccc34)[C@@](C(=O)OC)(c3cc4c(cc3OC)N(C)[C@H]3[C@@](O)(C(=O)OC)[C@H](OC(C)=O)[C@]5(CC)C=CCN6CC[C@]43[C@@H]65)C[C@H](C2)C1=O
inactive: dose: 1.0 mg/kg/injection, schedule: Q01DX001 (ip), vehicle: water 104 % of control | dose: 2.0 mg/kg/injection, schedule: Q01DX001 (ip), vehicle: water 108 % of control | dose: 4.0 mg/kg/injection, schedule: Q01DX001 (ip), vehicle: distilled water + Tween-80 119 % of control | dose: 4.0 mg/kg/injection, schedule: Q01DX001 (ip), vehicle: water 120 % of control | dose: 8.0 mg/kg/injection, schedule: Q01DX001 (ip), vehicle: distilled water + Tween-80 117 % of control | dose: 16.0 mg/kg/injection, schedule: Q01DX001 (ip), vehicle: distilled water + Tween-80 119 % of control

Oc1ccccc1C=Nc1ccc2nc(SCc3ccccc3)sc2c1
inactive: [2] 109 % of control | [3] 100 % of control | [4] 89 % of control

[N-]=[N+]=NC(=O)Nc1ccccc1F
inactive: dose: 3.75 mg/kg/injection, schedule: Q01DX005 (ip), vehicle: Klucel (hydroxypropylcellulose) (HPC) 96 % of control | dose: 7.5 mg/kg/injection, schedule: Q01DX005 (ip), vehicle: Klucel (hydroxypropylcellulose) (HPC) 90 % of control and 97 % of control | [1] 104 % of control

O=c1[nH]c2ccccc2n1C1CCN(CCOc2ccccc2)CC1
inactive: [2] 95 % of control | [3] 102 % of control | [4] 95 % of control

Cc1ccc2cccc(OC(=O)c3c(F)cccc3Cl)c2n1
inactive: [8] 99 % of control | [9] 96 % of control | dose: 200.0 mg/kg/injection, schedule: Q01DX005 (ip), vehicle: Klucel (hydroxypropylcellulose) (HPC) 99 % of control

COC1(OC)C2C=CC1CC2
inactive: dose: 50.0 mg/kg/injection, schedule: Q01DX009 (ip), vehicle: saline with Tween-80 107 % of control and 116 % of control | [10] 101 % of control | [11] 109 % of control

O=C1C(C(=NCCO)c2ccccc2)=C(O)c2ccccc21
inactive: dose: 25.0 mg/kg/injection, schedule: Q04DX002 (ip), vehicle: saline with Tween-80 90 % of control | dose: 50.0 mg/kg/injection, schedule: Q04DX002 (ip), vehicle: saline with Tween-80 101 % of control | dose: 100.0 mg/kg/injection, schedule: Q04DX002 (ip), vehicle: saline with Tween-80 89 % of control

CCCCCCCCCCCCCCCCCC(=O)N[C@@H](Cc1ccc(N(CCCl)CCCl)cc1)C(=O)NCCCCCC
inactive: dose: 2.12 mg/kg/injection, schedule: Q01DX009 (ip), vehicle: saline 109 % of control | dose: 2.12 mg/kg/injection, schedule: Q03HX008 (ip), vehicle: saline 90 % of control | dose: 4.24 mg/kg/injection, schedule: Q01DX009 (ip), vehicle: saline 113 % of control | dose: 4.24 mg/kg/injection, schedule: Q03HX008 (ip), vehicle: saline 100 % of control | dose: 8.48 mg/kg/injection, schedule: Q03HX008 (ip), vehicle: saline 100 % of control | dose: 16.95 mg/kg/injection, schedule: Q03HX008 (ip), vehicle: saline 100 % of control | dose: 33.9 mg/kg/injection, schedule: Q03HX008 (ip), vehicle: saline 90 % of control | dose: 67.8 mg/kg/injection, schedule: Q03HX008 (ip), vehicle: saline 90 % of control

CC(C)(C)c1ccc(OS(=O)(=O)c2cccc([N+](=O)[O-])c2)cc1
inactive: [10] 95 % of control | [11] 100 % of control | dose: 400.0 mg/kg/injection, schedule: Q01DX009 (ip), vehicle: saline with Tween-80 100 % of control

C=CCN=C(NC(C)(C)C)c1ccccc1
inactive: [8] 107 % of control | [9] 96 % of control

CC(C)=CCCC1(C)C=Cc2c(ccc3c(C)noc23)O1 (stereo unspecified)
inactive: [5] 100 % of control | [6] 89 % of control | [7] 110 % of control

NC(N)=NCCCC(N)C(=O)N1CCCC1C(=O)N1CCCC1C(=O)NC(CCCN=C(N)N)C(=O)O (stereo unspecified) (H-RPPR-OH; configuration not given here)
inactive: dose: 12.5 mg/kg/injection, schedule: Q01DX005 (ip), vehicle: saline 100 % of control | dose: 25.0 mg/kg/injection, schedule: Q01DX005 (ip), vehicle: saline 105 % of control | dose: 50.0 mg/kg/injection, schedule: Q01DX005 (ip), vehicle: saline 101 % of control

C=C1C(=O)OC2/C=C(\C)CC/C=C(/C)CC(OC(=O)/C(=C/CO)CO)C12 (stereo unspecified)
inactive: dose: 5.0 mg/kg/injection, schedule: Q01DX009 (ip), vehicle: Klucel (hydroxypropylcellulose) (HPC) 108 % of control and 113 % of control | dose: 10.0 mg/kg/injection, schedule: Q01DX009 (ip), vehicle: Klucel (hydroxypropylcellulose) (HPC) 106 % of control and 115 % of control (2×) | dose: 20.0 mg/kg/injection, schedule: Q01DX009 (ip), vehicle: Klucel (hydroxypropylcellulose) (HPC) 106 % of control and 117 % of control | dose: 40.0 mg/kg/injection, schedule: Q01DX009 (ip), vehicle: Klucel (hydroxypropylcellulose) (HPC) 113 % of control and 117 % of control and 89 % of control

Nc1cc(-c2ccccc2)nn1-c1nnc(-c2ccccc2)c(-c2ccccc2)n1
inactive: [5] 95 % of control | [6] 100 % of control | [7] 95 % of control

C=C(C)c1nc(Oc2ccccc2)nc(Oc2ccccc2)n1
inactive: dose: 200.0 mg/kg/injection, schedule: Q01DX001 (ip), vehicle: Klucel (hydroxypropylcellulose) (HPC) 88 % of control | dose: 400.0 mg/kg/injection, schedule: Q01DX001 (ip), vehicle: Klucel (hydroxypropylcellulose) (HPC) 89 % of control

C=C1C(=O)OC2(CCCCC)CCCCC12 (stereo unspecified)
inactive: [12] 96 % of control | [13] 99 % of control | dose: 200.0 mg/kg/injection, schedule: Q01DX009 (ip), vehicle: saline 96 % of control

N=c1ccc([N+](=O)[O-])cn1O
inactive: [12] 98 % of control | [13] 96 % of control

Cc1ccc(S(=O)(=O)NCCCl)cc1
inactive: dose: 25.0 mg/kg/injection, schedule: Q04DX003 (ip), vehicle: saline with Tween-80 104 % of control | dose: 50.0 mg/kg/injection, schedule: Q04DX003 (ip), vehicle: saline with Tween-80 99 % of control | dose: 100.0 mg/kg/injection, schedule: Q04DX003 (ip), vehicle: saline with Tween-80 114 % of control | dose: 200.0 mg/kg/injection, schedule: Q04DX003 (ip), vehicle: saline with Tween-80 98 % of control
